Assay results: the supplement of paper PMC11208160

Test: recombinant UMI read abundance after kanamycin selection (control-corrected) (log10(CPM+1)); higher = more efficient recombination; extreme values may be limits of the assay; sequences stand for … in AGTGCAGAGAAAATCGGCCAGTTTTCTCTGCCTGCAGTCCGCATGCCGTGGGACCCCTTGGGTTCTAACCTGTTGCCTAGATTTATGCAGCGGACTGCCTTTCTCCCAAAGTGATAAACCGG…AGGTTGGTTTCACT; site = the 11-nt donor
Procedure, shortened: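 Reported values are log10(CPM+1) from a pooled Escherichia coli screen of donor and donor-binding-loop pairs for the IS621 bridge recombinase. Selection used IPTG (0.07 mM) plus kanamycin, against unselected plating, each in two replicates. Recombinant UMIs were amplified across the donor–target junction, sequenced, converted to CPM, averaged over replicates and scaled by control-derived factors.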
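Further: IS621 bridge recombinase in Escherichia coli cells against a fixed T5 target plasmid.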

Sequence	recombinant UMI read abundance (log10)
CAATTCCCATGGACCGGTTTTCCCGGTAATCCGTATTTGCT (site CAATCCCCTAG)	0.539
CAATTCCCATGGACCGGTTTTCCCGGTAATCCGTATTTGCT (site CAATGCCCTAG)	0
CAATTCCCATGGACCGGTTTTCCCGGTAATCCGTATTTGCT (site CAATTACCTAG)	0
CAATTCCCATGGACCGGTTTTCCCGGTAATCCGTATTTGCT (site CAATTCACTAG)	0
CAATTCCCATGGACCGGTTTTCCCGGTAATCCGTATTTGCT (site CAATTCCCTAA)	0.188
CAATTCCCATGGACCGGTTTTCCCGGTAATCCGTATTTGCT (site CAATTCCCTAC)	0.184
CAATTCCCATGGACCGGTTTTCCCGGTAATCCGTATTTGCT (site CAATTCCCTAG)	0.879
CAATTCCCATGGACCGGTTTTCCCGGTAATCCGTATTTGCT (site CAATTCCCTAT)	1.61
CAATTCCCATGGACCGGTTTTCCCGGTAATCCGTATTTGCT (site CAATTCCCTCG)	0.178
CAATTCCCATGGACCGGTTTTCCCGGTAATCCGTATTTGCT (site CAATTCCCTGG)	0
CAATTCCCATGGACCGGTTTTCCCGGTAATCCGTATTTGCT (site CAATTCCCTTG)	0.615
CAATTCCCATGGACCGGTTTTCCCGGTAATCCGTATTTGCT (site CAATTCGCTAG)	0.00609
CAATTCCCATGGACCGGTTTTCCCGGTAATCCGTATTTGCT (site CAATTCTCTAG)	2.13
CAATTCCCATGGACCGGTTTTCCCGGTAATCCGTATTTGCT (site CAATTGCCTAG)	0
CAATTCCCATGGACCGGTTTTCCCGGTAATCCGTATTTGCT (site CAATTTCCTAG)	0
CAATTCCCATGGACCGGTTTTCCCGGTAATCCGTATTTGCT (site CACTTCCCTAG)	0.171
CAATTCCCATGGACCGGTTTTCCCGGTAATCCGTATTTGCT (site CAGTTCCCTAG)	0
CAATTCCCATGGACCGGTTTTCCCGGTAATCCGTATTTGCT (site CATTTCCCTAG)	0
CAATTCCCATGGACCGGTTTTCCCGGTAATCCGTATTTGCT (site CCATTCCCTAG)	1.17
CAATTCCCATGGACCGGTTTTCCCGGTAATCCGTATTTGCT (site CGATTCCCTAG)	0
CAATTCCCATGGACCGGTTTTCCCGGTAATCCGTATTTGCT (site CTATTCCCTAG)	0
CAATTCCCATGGACCGGTTTTCCCGGTAATCCGTATTTGCT (site GAATTCCCTAG)	0
CAATTCCCATGGACCGGTTTTCCCGGTAATCCGTATTTGCT (site TAATTCCCTAG)	0.428
CAATTCGCATGGACCGGTTTTCCCGGTAATCCGTATTTGCT (site CAATTCACTAG)	1.08
CAATTCGCATGGACCGGTTTTCCCGGTAATCCGTATTTGCT (site CAATTCCCTAG)	0

Sequence	recombinant UMI read abundance (log10)
CAATTCGCATGGACCGGTTTTCCCGGTAATCCGTATTTGCT (site CAATTCGCTAG)	0.564
CAATTCGCATGGACCGGTTTTCCCGGTAATCCGTATTTGCT (site CAATTCTCTAG)	0
CAATTCTCATGGACCGGTTTTCCCGGTAATCCGTATTTGAA (site CAATACTCTTT)	0.00453
CAATTCTCATGGACCGGTTTTCCCGGTAATCCGTATTTGAA (site CAATCCTCTTT)	0.327
CAATTCTCATGGACCGGTTTTCCCGGTAATCCGTATTTGAA (site CAATGCTCTTT)	0.0109
CAATTCTCATGGACCGGTTTTCCCGGTAATCCGTATTTGAA (site CAATTCTCTTT)	2.5
CACAACGCATGGACCGGTTTTCCCGGTAATCCGTATTTGCA (site CACAACGCTTG)	2.49
CACACCCCATGGACCGGTTTTCCCGGTAATCCGTATTTGCC (site CACACCCCTGG)	1.91
CACACCTCATGGACCGGTTTTCCCGGTAATCCGTATTTGCC (site CACACCTCTGG)	2.87
CACACCTCATGGACCGGTTTTCCCGGTAATCCGTATTTGCC (site CACCCCTCTGG)	1.27
CACACCTCATGGACCGGTTTTCCCGGTAATCCGTATTTGCC (site CACGCCTCTGG)	0
CACACCTCATGGACCGGTTTTCCCGGTAATCCGTATTTGCC (site CACTCCTCTGG)	1.97
CACAGATCATGGACCGGTTTTCCCGGTAATCCGTATTTGCT (site CACAGATCTAG)	2.32
CACAGCGCATGGACCGGTTTTCCCGGTAATCCGTATTTGTT (site CACAGCGCTAA)	1.99
CACAGGTCATGGACCGGTTTTCCCGGTAATCCGTATTTGAT (site CACAGGTCTAT)	2.14
CACATGACATGGACCGGTTTTCCCGGTAATCCGTATTTGGA (site CACATGACTTC)	1.1
CACATGTCATGGACCGGTTTTCCCGGTAATCCGTATTTGCA (site CACATGTCTTG)	2.4
CACATTTCATGGACCGGTTTTCCCGGTAATCCGTATTTGAA (site CACATTTCTTT)	0
CACCACACATGGACCGGTTTTCCCGGTAATCCGTATTTGTA (site CACCACACTTA)	2.13
CACCACACATGGACCGGTTTTCCCGGTAATCCGTATTTGTA (site CCCCACACTTA)	0.591
CACCACACATGGACCGGTTTTCCCGGTAATCCGTATTTGTA (site CGCCACACTTA)	0.29
CACCACACATGGACCGGTTTTCCCGGTAATCCGTATTTGTA (site CTCCACACTTA)	0.179
CACCCGACATGGACCGGTTTTCCCGGTAATCCGTATTTGTA (site CACCCGACTTA)	1.32
CACCCGTCATGGACCGGTTTTCCCGGTAATCCGTATTTGTT (site CACCCGTCTAA)	2.2
CACCGATCATGGACCGGTTTTCCCGGTAATCCGTATTTGCC (site CACCGATCTGG)	2.44

Sequence	recombinant UMI read abundance (log10)
CACCTTACATGGACCGGTTTTCCCGGTAATCCGTATTTGCC (site CACCTTACTGG)	1.46
CACGACACATGGACCGGTTTTCCCGGTAATCCGTATTTGTG (site CACGACACTCA)	1.41
CACGATTCATGGACCGGTTTTCCCGGTAATCCGTATTTGCC (site CACGATTCTGG)	2.11
CACGCAGCATGGACCGGTTTTCCCGGTAATCCGTATTTGCG (site CACGCAGCTCG)	1.32
CACGCGCCATGGACCGGTTTTCCCGGTAATCCGTATTTGTG (site CAAGCGCCTCA)	0.00364
CACGCGCCATGGACCGGTTTTCCCGGTAATCCGTATTTGTG (site CACGCGCCTCA)	0.00403
CACGCGCCATGGACCGGTTTTCCCGGTAATCCGTATTTGTG (site CAGGCGCCTCA)	0.056
CACGCGCCATGGACCGGTTTTCCCGGTAATCCGTATTTGTG (site CATGCGCCTCA)	0
CACGCGTCATGGACCGGTTTTCCCGGTAATCCGTATTTGGG (site CACGCGTCTCC)	1.04
CACGGCCCATGGACCGGTTTTCCCGGTAATCCGTATTTGTT (site AACGGCCCTAA)	0.0126
CACGGCCCATGGACCGGTTTTCCCGGTAATCCGTATTTGTT (site CAAGGCCCTAA)	0.0138
CACGGCCCATGGACCGGTTTTCCCGGTAATCCGTATTTGTT (site CACAGCCCTAA)	0.215
CACGGCCCATGGACCGGTTTTCCCGGTAATCCGTATTTGTT (site CACCGCCCTAA)	0.0224
CACGGCCCATGGACCGGTTTTCCCGGTAATCCGTATTTGTT (site CACGACCCTAA)	0.652
CACGGCCCATGGACCGGTTTTCCCGGTAATCCGTATTTGTT (site CACGCCCCTAA)	0.0151
CACGGCCCATGGACCGGTTTTCCCGGTAATCCGTATTTGTT (site CACGGACCTAA)	0.0168
CACGGCCCATGGACCGGTTTTCCCGGTAATCCGTATTTGTT (site CACGGCACTAA)	0.0172
CACGGCCCATGGACCGGTTTTCCCGGTAATCCGTATTTGTT (site CACGGCCCTAA)	0.135
CACGGCCCATGGACCGGTTTTCCCGGTAATCCGTATTTGTT (site CACGGCCCTAC)	0.017
CACGGCCCATGGACCGGTTTTCCCGGTAATCCGTATTTGTT (site CACGGCCCTAG)	1.14
CACGGCCCATGGACCGGTTTTCCCGGTAATCCGTATTTGTT (site CACGGCCCTAT)	0.437
CACGGCCCATGGACCGGTTTTCCCGGTAATCCGTATTTGTT (site CACGGCCCTCA)	0.0268
CACGGCCCATGGACCGGTTTTCCCGGTAATCCGTATTTGTT (site CACGGCCCTGA)	1.16
CACGGCCCATGGACCGGTTTTCCCGGTAATCCGTATTTGTT (site CACGGCCCTTA)	0.0328
CACGGCCCATGGACCGGTTTTCCCGGTAATCCGTATTTGTT (site CACGGCGCTAA)	0.0318
